From paper PMC12021451 (Planta Medica, 2025) come the findings set out here.

Counter-ions that a name gives are not always drawn.

The nature of the series: blood-to-plasma concentration ratio. The settings on record: range of 4 to 1000 ng/mL. The class given is in vitro ADME, human.

For the compound `Cn1c(=O)c2c(ncn2C)n(C)c1=O` [Caffeine], the “Effect of the compound concentration on the Rb value” was “not observed”.
For `CN(C)CCCN1c2ccccc2CCc2ccccc21` [Imipramine, imipramine hydrochlorid], the “Effect of the compound concentration on the Rb value” is “not observed”.
The value for `C/C=C1/C[C@@H](C)[C@](O)(CO)C(=O)OCC2=CC[N@@+]3([O-])CC[C@@H](OC1=O)[C@@H]23` [Retrorsine N -oxide] was “no concentration dependency was observed”.
